Laboratory results: PMC9403976, “Elucidating the path to Plasmodium prolyl-tRNA synthetase inhibitors that overcome halofuginone resistance” (Nature Communications, 2022)
Values joined by “and” are separate entries in the source; they are usually repeats but may differ in a detail not shown here. Equal entries are not always repeated. Where two headings read alike, the source gives them in different places.

Key:
HsProRS = HsProRS (Homo sapiens, UniProt P07814); test: TR-FRET ligand displacement assay with tracer MAT379 (CoraFluor-1-Halo and anti-His6 antibody formats); type: binding; parameters: made in house; host or cells: E. coli SoluBL-21; details: SI Fig 15; Log[inhibitor] (M) -9.17609; listed as NCP26 (3)
[1] = tested on: P. falciparum Dd2-2D4 NCP26 selections S1-3; test: ABS growth assay on bulk populations and clones from NCP26 resistance selections S1-3; type: cell-based, Plasmodium falciparum; details: for EC50: Plasmodium falciparum
Description: In short, P. falciparum erythrocytic-stage parasites at 1% parasitemia and 1% hematocrit in RPMI + 0.5% Albumax were seeded at 40 μL/well in 384-well plates with test compounds in triplicate, dose-response format with 10 μM dihydroartemisinin as a kill-control and blank (no compound) wells as a growth-control. […] After 72 h, growth was quantified by measuring fluorescence (Molecular Devices SpectraMax iD5) following SYBR Green 1 staining. Data were analyzed in Excel and plotted in PRISM (V. 8.4.3–9.1.0, GraphPad).
This cycle was repeated for ~50 generations (~100 days), corresponding to 5–6 cycles of drug pressure.
Clonal parasites were isolated from each selection flask by limiting dilution of ring stage parasites in 96-well plates to an average of 0.8 and 0.2 parasites per well.

P. falciparum Dd2-2D4 = test: P. falciparum ABS short-term resistance susceptibility assay; type: cell-based, Plasmodium falciparum; details: wild-type parasites under intermittent drug pressure
Description: Following recrudescence, sensitivity to NCP26 and halofuginone was assayed using the ABS growth assay.

PfcProRS = target: T1, PfcProRS (Plasmodium falciparum, UniProt Q8I5R7); type: binding; details: for dose-response signal (normalized), SI Fig 8: single replicates, listed as NCP26 (3)
T1 construct: made in house; host or cells: E. coli SoluBL-21

[2] = tested on: HFGR-I P. falciparum (elevated proline homeostasis and PfcProRS^L482H); test: P. falciparum ABS growth assay, SYBR Green, 72 h, HFGR-I parasites; type: cell-based, Plasmodium falciparum; details: for parasite growth, replicate wells (Fig 1b): HFGR-I
In short: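 Growth inhibition of the resistant and induced Dd2 lines is measured over 72 h in triplicate dose-response, starting at 1% parasitemia and 1% hematocrit. SYBR Green 1 staining gives the fluorescence readout, normalized between 10 μM dihydroartemisinin and no-compound wells.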

HsProRS, sequence (P07814 996-1512): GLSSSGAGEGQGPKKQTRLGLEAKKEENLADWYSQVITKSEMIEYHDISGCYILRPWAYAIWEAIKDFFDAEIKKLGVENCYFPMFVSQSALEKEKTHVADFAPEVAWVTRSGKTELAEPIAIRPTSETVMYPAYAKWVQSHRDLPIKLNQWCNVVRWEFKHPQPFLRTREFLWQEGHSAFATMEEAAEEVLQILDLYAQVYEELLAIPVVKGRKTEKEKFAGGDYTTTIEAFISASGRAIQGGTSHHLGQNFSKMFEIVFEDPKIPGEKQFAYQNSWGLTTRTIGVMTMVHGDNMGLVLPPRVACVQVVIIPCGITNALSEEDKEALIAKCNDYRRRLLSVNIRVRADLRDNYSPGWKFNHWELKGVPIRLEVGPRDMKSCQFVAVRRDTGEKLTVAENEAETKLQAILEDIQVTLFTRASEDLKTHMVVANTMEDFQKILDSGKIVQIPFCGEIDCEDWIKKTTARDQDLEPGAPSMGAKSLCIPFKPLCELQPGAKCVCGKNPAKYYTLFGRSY
T1 sequence (Q8I5R7 249-746): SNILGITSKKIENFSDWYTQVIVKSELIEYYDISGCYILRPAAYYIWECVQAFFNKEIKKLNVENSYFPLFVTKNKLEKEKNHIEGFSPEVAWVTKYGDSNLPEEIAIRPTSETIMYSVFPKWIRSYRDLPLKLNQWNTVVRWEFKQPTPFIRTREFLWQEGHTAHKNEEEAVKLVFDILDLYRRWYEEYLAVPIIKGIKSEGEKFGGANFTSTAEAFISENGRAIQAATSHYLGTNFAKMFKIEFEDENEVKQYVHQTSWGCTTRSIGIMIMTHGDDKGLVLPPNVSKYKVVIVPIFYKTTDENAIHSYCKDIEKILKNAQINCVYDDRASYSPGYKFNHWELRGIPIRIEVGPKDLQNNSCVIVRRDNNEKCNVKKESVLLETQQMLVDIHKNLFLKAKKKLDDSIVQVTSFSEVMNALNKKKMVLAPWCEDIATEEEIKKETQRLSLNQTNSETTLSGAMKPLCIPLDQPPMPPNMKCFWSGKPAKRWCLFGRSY

O=C(NC1Cc2ccccc2C1)c1nccnc1NC(=O)N1CCCCC1 [NCP26]
normalized TR-FRET signal (dose-response replicates) (HsProRS): 7.05E-01 and 1.05E+00 and 1.13E+00 | EC50 ([1]; DD2, cell line S1 - Clone A8, read-out: EC50 [nM] mean): 68.1 nM | EC50 ([1]; DD2, cell line S1 - bulk population, read-out: EC50 [nM] mean): 102 nM | EC50 ([1]; DD2, cell line S2 - Clone A3, read-out: EC50 [nM] mean): 1240 nM | EC50 ([1]; DD2, cell line S2 - Clone B9, read-out: EC50 [nM] mean): 2930 nM | EC50 ([1]; DD2, cell line S2 - Clone C5, read-out: EC50 [nM] mean): 1580 nM | EC50 ([1]; DD2, cell line S2 - bulk population, read-out: EC50 [nM] mean): 1340 nM | EC50 ([1]; DD2, cell line S3 - Clone B3, read-out: EC50 [nM] mean): 2810 nM | EC50 ([1]; DD2, cell line S3 - Clone B7, read-out: EC50 [nM] mean): 2450 nM | EC50 ([1]; DD2, cell line S3 - bulk population, read-out: EC50 [nM] mean): 2000 nM | EC50 ([1]; DD2, read-out: EC50 [nM] mean, cell line S3 - Clone B2): 5110 nM | parasite growth, dose-response point ([1]; S1 - Clone A8, Log[NCP26] (M) -6.505): 1 | parasite growth, dose-response point ([1]; S1 - Clone A8, Log[NCP26] (M) -6.806): 9 | parasite growth, dose-response point ([1]; S1 - Clone A8, Log[NCP26] (M) -7.107): 33 and 29 | parasite growth, dose-response point ([1]; S1 - Clone A8, Log[NCP26] (M) -7.408): 93 and 97 and 101 | parasite growth, dose-response point ([1]; S2 - Clone A3, Log[NCP26] (M) -6.505): 93 and 92 and 86 | parasite growth, dose-response point ([1]; S2 - Clone A3, Log[NCP26] (M) -6.806): 96 and 98 and 93 | parasite growth, dose-response point ([1]; S2 - Clone A3, Log[NCP26] (M) -7.107): 100 and 98 | parasite growth, dose-response point ([1]; S2 - Clone A3, Log[NCP26] (M) -7.408): 99 and 101 and 100 | parasite growth, dose-response point ([1]; S2 - Clone B9, Log[NCP26] (M) -6.505): 98 and 112 and 97 | parasite growth, dose-response point ([1]; S2 - Clone B9, Log[NCP26] (M) -6.806): 107 and 93 and 96 | parasite growth, dose-response point ([1]; S2 - Clone B9, Log[NCP26] (M) -7.107): 96 and 110 and 113 | parasite growth, dose-response point ([1]; S2 - Clone B9, Log[NCP26] (M) -7.408): 107 and 94 and 102 | parasite growth, dose-response point ([1]; S2 - Clone B9, Log[NCP26] (M) -7.709): 99 and 93 and 94 | parasite growth, dose-response point ([1]; S2 - Clone C5, Log[NCP26] (M) -6.505): 95 and 102 | parasite growth, dose-response point ([1]; S2 - Clone C5, Log[NCP26] (M) -6.806): 98 and 100 and 101 | parasite growth, dose-response point ([1]; S2 - Clone C5, Log[NCP26] (M) -7.107): 101 and 97 | parasite growth, dose-response point ([1]; S2 - Clone C5, Log[NCP26] (M) -7.408): 96 and 101 and 100 | parasite growth, dose-response point ([1]; S2 - Clone C5, Log[NCP26] (M) -7.709): 102 and 105 | parasite growth, dose-response point ([1]; S3 - Clone A6, Log[NCP26] (M) -6.505): 108 and 103 and 90 | parasite growth, dose-response point ([1]; S3 - Clone A6, Log[NCP26] (M) -6.806): 101 and 97 | parasite growth, dose-response point ([1]; S3 - Clone A6, Log[NCP26] (M) -7.107): 95 and 100 and 96 | parasite growth, dose-response point ([1]; S3 - Clone A6, Log[NCP26] (M) -7.408): 112 and 100 and 105 | parasite growth, dose-response point ([1]; S3 - Clone A8, Log[NCP26] (M) -6.505): 94 and 102 and 97 | parasite growth, dose-response point ([1]; S3 - Clone A8, Log[NCP26] (M) -6.806): 101 and 99 and 104 | parasite growth, dose-response point ([1]; S3 - Clone A8, Log[NCP26] (M) -7.107): 100 and 103 and 99 | parasite growth, dose-response point ([1]; S3 - Clone A8, Log[NCP26] (M) -7.408): 104 (2×) and 98 | parasite growth, dose-response point ([1]; S3 - Clone B2, Log[NCP26] (M) -6.505): 76 and 92 and 86 | parasite growth, dose-response point ([1]; S3 - Clone B2, Log[NCP26] (M) -6.806): 88 and 90 and 99 | parasite growth, dose-response point ([1]; S3 - Clone B2, Log[NCP26] (M) -7.107): 113 and 109 and 107 | parasite growth, dose-response point ([1]; S3 - Clone B2, Log[NCP26] (M) -7.408): 108 and 109 | parasite growth, dose-response point ([1]; S3 - Clone B3, Log[NCP26] (M) -6.505): 92 and 95 | parasite growth, dose-response point ([1]; S3 - Clone B3, Log[NCP26] (M) -6.806): 92 and 96 and 98 | parasite growth, dose-response point ([1]; S3 - Clone B3, Log[NCP26] (M) -7.107): 99 and 94 | parasite growth, dose-response point ([1]; S3 - Clone B3, Log[NCP26] (M) -7.408): 105 and 101 and 104 | parasite growth, dose-response point ([1]; S3 - Clone B7, Log[NCP26] (M) -6.505): 101 and 95 and 100 | parasite growth, dose-response point ([1]; S3 - Clone B7, Log[NCP26] (M) -6.806): 99 and 96 and 101 | parasite growth, dose-response point ([1]; S3 - Clone B7, Log[NCP26] (M) -7.107): 98 and 94 and 99 | parasite growth, dose-response point ([1]; S3 - Clone B7, Log[NCP26] (M) -7.408): 105 and 98 | induction of rapid resistance (P. falciparum Dd2-2D4): did not induce rapid resistance | binding mode with respect to substrates (ATP, proline) (PfcProRS): proline-uncompetitive | fold increased affinity in the presence of proline (PfcProRS): 52 fold | dose-response signal (normalized), SI Fig 8 (PfcProRS; Log[inhibitor] (M) -6.301): -4.45E-02 and 1.59E-01 and 5.71E-02 and 4.55E-02 and 8.14E-02 and 4.48E-02 | dose-response signal (normalized), SI Fig 8 (PfcProRS; Log[inhibitor] (M) -6.602): 1.17E-01 and 1.10E-01 and 1.62E-01 and 1.06E-01 and 1.14E-01 and 3.45E-02 | dose-response signal (normalized), SI Fig 8 (PfcProRS; Log[inhibitor] (M) -6.904): -7.84E-03 and 4.23E-02 and 1.85E-01 and 6.33E-02 and -1.22E-02 and 1.04E-01 | dose-response signal (normalized), SI Fig 8 (PfcProRS; Log[inhibitor] (M) -7.205): 1.30E-01 and 1.69E-01 and 1.26E-02 and 6.32E-02 and 1.43E-01 and 5.72E-02 | dose-response signal (normalized), SI Fig 8 (PfcProRS; Log[inhibitor] (M) -7.506): 2.32E-01 and 1.89E-01 and 1.64E-01 and 2.04E-01 and 7.73E-02 and 1.02E-01 | dose-response signal (normalized), SI Fig 8 (PfcProRS; Log[inhibitor] (M) -7.796): 3.08E-01 and 3.64E-01 and 4.11E-01 and 4.02E-01 and 3.25E-01 and 3.10E-01 | dose-response signal (normalized), SI Fig 8 (PfcProRS; Log[inhibitor] (M) -8.097): 5.23E-01 and 5.87E-01 and 9.12E-01 and 7.05E-01 and 5.54E-01 and 7.03E-01 | dose-response signal (normalized), SI Fig 8 (PfcProRS; Log[inhibitor] (M) -8.407): 7.84E-01 and 7.32E-01 and 7.98E-01 and 9.93E-01 and 8.87E-01 and 8.26E-01 | dose-response signal (normalized), SI Fig 8 (PfcProRS; Log[inhibitor] (M) -8.708): 9.57E-01 and 1.08E+00 and 9.98E-01 and 8.58E-01 and 8.40E-01 and 9.70E-01 | dose-response signal (normalized), SI Fig 8 (PfcProRS; Log[inhibitor] (M) -9.018): 9.48E-01 and 9.31E-01 and 1.13E+00 and 1.15E+00 and 1.02E+00 and 9.66E-01 | dose-response signal (normalized), SI Fig 8 (PfcProRS; Log[inhibitor] (M) -9.319): 9.22E-01 and 1.00E+00 and 1.07E+00 and 1.03E+00 and 1.09E+00 and 9.57E-01 | dose-response signal (normalized), SI Fig 8 (PfcProRS; Log[inhibitor] (M) -9.620): 1.10E+00 and 1.04E+00 (2×) and 9.95E-01 and 1.13E+00 and 9.21E-01 | dose-response signal (normalized), SI Fig 8 (PfcProRS; Log[inhibitor] (M) -9.921): 9.45E-01 and 1.02E+00 and 1.05E+00 and 9.10E-01 and 9.27E-01 and 9.41E-01 | dose-response signal (normalized), SI Fig 8 (PfcProRS; Log[inhibitor] (M) -10.097): 1.10E+00 and 1.01E+00 and 1.17E+00 and 9.78E-01 and 8.32E-01 and 1.04E+00 | dose-response signal (normalized), SI Fig 8 (PfcProRS; Log[inhibitor] (M) -10.585): 1.14E+00 and 1.18E+00 and 8.42E-01 and 8.75E-01 and 9.70E-01 and 1.02E+00 | PfcProRS -- best Kd (PfcProRS; SI Fig 16a, values on -log scale): 8.599 | parasite growth, replicate wells (Fig 1b) ([2]; Log[inhibitor] (M) -4.699): 0.00E+00 | parasite growth, replicate wells (Fig 1b) ([2]; Log[inhibitor] (M) -5.000): 0.00E+00 | parasite growth, replicate wells (Fig 1b) ([2]; Log[inhibitor] (M) -5.301): 0.00E+00 | parasite growth, replicate wells (Fig 1b) ([2]; Log[inhibitor] (M) -5.602, listed as NCP26 (3)): 0.00E+00 and 1.00E+00 (2×) | parasite growth, replicate wells (Fig 1b) ([2]; Log[inhibitor] (M) -5.903): 0.00E+00 | parasite growth, replicate wells (Fig 1b) ([2]; Log[inhibitor] (M) -6.204): 0.00E+00 | parasite growth, replicate wells (Fig 1b) ([2]; Log[inhibitor] (M) -6.505): 1.00E+00 | parasite growth, replicate wells (Fig 1b) ([2]; Log[inhibitor] (M) -6.806, listed as NCP26 (3)): 7.00E+00 (2×) and 6.00E+00 | parasite growth, replicate wells (Fig 1b) ([2]; Log[inhibitor] (M) -7.107, listed as NCP26 (3)): 3.90E+01 and 3.70E+01 (2×) | parasite growth, replicate wells (Fig 1b) ([2]; Log[inhibitor] (M) -7.408, listed as NCP26 (3)): 9.90E+01 and 1.07E+02 and 1.00E+02 | parasite growth, replicate wells (Fig 1b) ([2]; Log[inhibitor] (M) -7.709, listed as NCP26 (3)): 1.11E+02 (2×) and 1.00E+02 | parasite growth, replicate wells (Fig 1b) ([2]; Log[inhibitor] (M) -8.010, listed as NCP26 (3)): 1.08E+02 and 1.07E+02 and 1.06E+02 | dose-response value, Replicates 1-3 (SI Fig 2f) ([2]; Log[inhibitor] (M) -4.699): 0 | dose-response value, Replicates 1-3 (SI Fig 2f) ([2]; Log[inhibitor] (M) -5.000): 0 | dose-response value, Replicates 1-3 (SI Fig 2f) ([2]; Log[inhibitor] (M) -5.301): 0 | dose-response value, Replicates 1-3 (SI Fig 2f) ([2]; Log[inhibitor] (M) -5.903): 0 | dose-response value, Replicates 1-3 (SI Fig 2f) ([2]; Log[inhibitor] (M) -6.204): 0 | dose-response value, Replicates 1-3 (SI Fig 2f) ([2]; Log[inhibitor] (M) -6.505): 1
